Data reported in ChEMBL document CHEMBL5523723, “G Protein-Coupled Estrogen Receptor-Mediated Anti-Inflammatory and Mucosal Healing Activity of a Trimethylpyridinol Analogue in Inflammatory Bowel Disease” (J Med Chem, 2024).
Calls of active or inactive are those of the source. No cut-off for these calls is given here.

Key:
[1] = Inhibition of IL6 induced adhesion of TPA treated human U-937 cells to human HT-29 cells at 1 uM pretreated with HT-29 for 1 hr followed by U-937 addition along with IL6 stimulation for 3 hrs by fluorescence based microplate reader assay relative to control; type: functional; conditions: time 4 hrs
[2] = tested on: HT-29; test: Induction of apoptosis in human HT-29 cells assessed as early apoptotic cells at 10 uM incubated for 24 hrs by Annexin V FITC/PI staining based flow cytometry analysis ( Rvb = 0%); type: functional
[3] = tested on: HT-29; test: (§1) Mucosal healing effect in TNFalpha induced human HT-29 cells assessed as decrease in epithelial permeability by measuring reduced […] FITC-dextran 4 level at 10 uM pretreated with compound and G15 for 3 hrs followed by TNFalpha addition and subsequent FD4 addition and measured after 2 hrs by fluorescence based assay; type: functional, cell-based; conditions: time 5.0 hrs
[4] = tested on: HT-29; test: Induction of apoptosis in human HT-29 cells assessed as early apoptotic cells at 5 uM incubated for 24 hrs by Annexin V FITC/PI staining based flow cytometry analysis ( Rvb = 0%); type: functional
[5] = tested on: U-937; test: Induction of apoptosis in human U-937 cells assessed as late apoptotic cells at 1 uM incubated for 24 hrs by Annexin V FITC/PI staining based flow cytometry analysis ( Rvb = 4 +/- 0.2%); type: functional
[6] = tested on: HT-29; test: Induction of apoptosis in human HT-29 cells assessed as necrotic cells at 10 uM incubated for 24 hrs by Annexin V FITC/PI staining based flow cytometry analysis ( Rvb = 0.2%); type: functional
[7] = tested on: U-937; test: Induction of apoptosis in human U-937 cells assessed as late apoptotic cells at 5 uM incubated for 24 hrs by Annexin V FITC/PI staining based flow cytometry analysis ( Rvb = 4 +/- 0.2%); type: functional
[8] = tested on: U-937; test: Induction of apoptosis in human U-937 cells assessed as necrotic cells at 1 uM incubated for 24 hrs by Annexin V FITC/PI staining based flow cytometry analysis ( Rvb = 0.2 +/- 0.1%); type: functional
[9] = tested on: U-937; test: Induction of apoptosis in human U-937 cells assessed as viable cells at 10 uM incubated for 24 hrs by Annexin V FITC/PI staining based flow cytometry analysis ( Rvb = 95.2 +/- 0.4%); type: functional; conditions: read-out: Activity
[10] = tested on: U-937; test: Induction of apoptosis in human U-937 cells assessed as viable cells at 1 uM incubated for 24 hrs by Annexin V FITC/PI staining based flow cytometry analysis ( Rvb = 95.2 +/- 0.4%); type: functional; conditions: read-out: Activity
[11] = tested on: HT-29; test: Induction of apoptosis in human HT-29 cells assessed as early apoptotic cells at 1 uM incubated for 24 hrs by Annexin V FITC/PI staining based flow cytometry analysis ( Rvb = 0%); type: functional
[12] = tested on: U-937; test: Induction of apoptosis in human U-937 cells assessed as viable cells at 5 uM incubated for 24 hrs by Annexin V FITC/PI staining based flow cytometry analysis ( Rvb = 95.2 +/- 0.4%); type: functional; conditions: read-out: Activity
[13] = tested on: HT-29; test: Induction of apoptosis in human HT-29 cells assessed as late apoptotic cells at 5 uM incubated for 24 hrs by Annexin V FITC/PI staining based flow cytometry analysis ( Rvb = 0.7%); type: functional
[14] = tested on: HT-29; test: Induction of apoptosis in human HT-29 cells assessed as late apoptotic cells at 1 uM incubated for 24 hrs by Annexin V FITC/PI staining based flow cytometry analysis ( Rvb = 0.7%); type: functional
[15] = tested on: U-937; test: Induction of apoptosis in human U-937 cells assessed as necrotic cells at 5 uM incubated for 24 hrs by Annexin V FITC/PI staining based flow cytometry analysis ( Rvb = 0.2 +/- 0.1%); type: functional
[16] = tested on: HT-29; test: Induction of apoptosis in human HT-29 cells assessed as late apoptotic cells at 10 uM incubated for 24 hrs by Annexin V FITC/PI staining based flow cytometry analysis ( Rvb = 0.7%); type: functional
[17] = tested on: U-937; test: Induction of apoptosis in human U-937 cells assessed as early apoptotic cells at 1 uM incubated for 24 hrs by Annexin V FITC/PI staining based flow cytometry analysis ( Rvb = 0.6 +/- 0.1 %); type: functional
[18] = tested on: HT-29; test: Induction of apoptosis in human HT-29 cells assessed as necrotic cells at 1 uM incubated for 24 hrs by Annexin V FITC/PI staining based flow cytometry analysis ( Rvb = 0.2%); type: functional
[19] = tested on: U-937; test: Induction of apoptosis in human U-937 cells assessed as necrotic cells at 10 uM incubated for 24 hrs by Annexin V FITC/PI staining based flow cytometry analysis( Rvb = 0.2 +/- 0.1%); type: functional
[20] = tested on: HT-29; test: as §1, with “at 0.1 to” for “at”, “pretreated” for “pretreated with compound and G15”; type: functional, cell-based; conditions: dose 0.1-10 µM, time 5.0 hrs
[21] = tested on: HT-29; test: Induction of apoptosis in human HT-29 cells assessed as necrotic cells at 5 uM incubated for 24 hrs by Annexin V FITC/PI staining based flow cytometry analysis ( Rvb = 0.2%); type: functional
[22] = tested on: HT-29; test: Induction of apoptosis in human HT-29 cells assessed as viable cells at 5 uM incubated for 24 hrs by Annexin V FITC/PI staining based flow cytometry analysis ( Rvb = 99 +/- 0.1%); type: functional; conditions: read-out: Activity
[23] = tested on: U-937; test: Induction of apoptosis in human U-937 cells assessed as early apoptotic cells at 10 uM incubated for 24 hrs by Annexin V FITC/PI staining based flow cytometry analysis ( Rvb = 0.6 +/- 0.1 %); type: functional
[24] = tested on: U-937; test: Induction of apoptosis in human U-937 cells assessed as early apoptotic cells at 5 uM incubated for 24 hrs by Annexin V FITC/PI staining based flow cytometry analysis ( Rvb = 0.6 +/- 0.1 %); type: functional
[25] = tested on: HT-29; test: Induction of apoptosis in human HT-29 cells assessed as viable cells at 1 uM incubated for 24 hrs by Annexin V FITC/PI staining based flow cytometry analysis ( Rvb = 99 +/- 0.1%); type: functional; conditions: read-out: Activity
[26] = tested on: U-937; test: Induction of apoptosis in human U-937 cells assessed as late apoptotic cells at 10 uM incubated for 24 hrs by Annexin V FITC/PI staining based flow cytometry analysis ( Rvb = 4 +/- 0.2%); type: functional
[27] = tested on: HT-29; test: Induction of apoptosis in human HT-29 cells assessed as viable cells at 10 uM incubated for 24 hrs by Annexin V FITC/PI staining based flow cytometry analysis ( Rvb = 99 +/- 0.1%); type: functional; conditions: read-out: Activity
[28] = tested on: U-937; test: Inhibition of TNFalpha induced adhesion of TPA treated human U-937 cells to human HT-29 cells at 1 uM pretreated with HT-29 for 1 hr followed by U-937 addition along with TNFalpha stimulation for 3 hrs by fluorescence based microplate reader assay relative to control; type: functional; conditions: time 4 hrs

Cc1nc(NC(=O)c2ccccc2)c(C)c(C)c1O
inhibition at 1 µM [1]: 44.1%

Brc1cc2c(cc1[C@@H]1Nc3ccccc3[C@@H]3C=CC[C@@H]31)OCO2
Activity [2]: 2.4%
Activity [3]: inactive
Activity [4]: 1%
Activity [5]: 13.1%
Activity [6]: 0.7%
Activity [7]: 18.3%
Activity [8]: 0.5%
viability at 10 µM [9]: 65.7%
viability at 1 µM [10]: 79.6%
Activity [11]: 1.6%
viability at 5 µM [12]: 74.6%
Activity [13]: 13.1%
Activity [14]: 10.4%
Activity [15]: 0.7%
Activity [16]: 17.1%
Activity [17]: 6.8%
Activity [18]: 1.6%
Activity [19]: 0.3%
Activity [20]: inactive
Activity [21]: 1.6%
viability at 5 µM [22]: 84.2%
Activity [23]: 6.2%
Activity [24]: 6.5%
viability at 1 µM [25]: 86.4%
Activity [26]: 27.9%
viability at 10 µM [27]: 79.7%

Cc1nc(NC(=O)c2ccsc2)c(C)c(C)c1O
inhibition at 1 µM [28]: 11.5%
inhibition at 1 µM [1]: 19.3%

Cc1nc(NC(=O)c2cc3ccccc3s2)c(C)c(C)c1O
inhibition at 1 µM [1]: 27%

Cc1nc(NC(=O)c2ccoc2)c(C)c(C)c1O
inhibition at 1 µM [28]: 60.3%
inhibition at 1 µM [1]: 54.1%

Cc1nc(NC(=O)c2cccs2)c(C)c(C)c1O
inhibition at 1 µM [1]: 61.6%

Cc1ccc(C(=O)Nc2nc(C)c(O)c(C)c2C)o1
inhibition at 1 µM [28]: 79.9%
inhibition at 1 µM [1]: 70.2%
